Reference: publication PMC9959349, “Discovery of the 3-Amino-1,2,4-triazine-Based Library as Selective PDK1 Inhibitors with Therapeutic Potential in Highly Aggressive Pancreatic Ductal Adenocarcinoma” (International Journal of Molecular Sciences, 2023)

Key:
[1] = test system: S232 PDH E1 alpha protein (PDHA1) phosphorylation in PSN-1 cells; test: Cellular PDH phosphorylation (ELISA); type: cell-based, human; conditions: 24 h, IC50 concentrations
Description: As a first step, the ability of representative derivatives to target PDK in intact cancer cells was assessed by evaluating their effect on PDH phosphorylation of PSN-1 cancer cells.
PSN-1 cells (2 × 10^5) were seeded in a six-well plate in growth medium (4 mL). After 24 h, cells were incubated for 24 h with IC50 concentrations of tested compounds. Subsequently, the phosphorylation level of S232 PDH E1 alpha protein (PDHA1) was assessed by ELISA Kit (Abcam) following the manufacturer’s instructions. The amount of phosphorylated S232 PDHA1 protein was detected by measuring the absorbance of each well at 600 nm, using a Bio-Rad 680 microplate reader.

[2] = test system: PSN-1 cells; test: ROS production (CM-H2DCFDA); type: cell-based, human; conditions: 5 µM test compounds, antimycin 3 µM as positive control
Description: Consistently, tested compounds, although to different extents, were effective in reducing total cellular sulfhydryl contents in PSN-1-treated cells (Figure 9B).
The production of ROS was measured in PSN-1 cells (10^4 per well) grown for 24 h in a 96-well plate in RPMI medium without phenol red (Sigma Aldrich, Germany). Cells were then washed with PBS and loaded with 10 μM 5-(and-6)-chloromethyl-2′,7′-dichlorodihydrofluorescein diacetate acetylester (CM–H2DCFDA) (Molecular Probes-Invitrogen, Eugene, OR, USA) for 45 min, in the dark. Afterward, cells were washed with PBS and incubated with tested compounds. Fluorescence increase was estimated utilizing the wavelengths of 485 nm (excitation) and 527 nm (emission) in a VICTOR X3 (PerkinElmer, USA) plate reader. Antimycin (3 μM, Sigma Aldrich), a potent inhibitor of Complex III in the electron transport chain, was used as the positive control.

[3] = test system: S232 PDH E1 alpha protein (PDHA1) phosphorylation in LLC tissue; test: PDH phosphorylation in mice tumor tissues (ELISA); type: in vivo, C57BL mice; conditions: LLC-bearing mice, 5i 20 mg kg−1 daily i.p., tumors collected day 15
Description: As a proof-of-concept of PDK inhibitory activity of the newly developed 3-amino 1,2,4-triazines, we also assessed the phosphorylation level of S232-PDHA1 in tumor samples of animals treated with 5i. Tumors of treated animals collected on day 15 were homogenized and phopho-S232-PDHA1 levels were quantified by an ELISA Kit.
The phosphorylation level of S232 PDH E1 alpha protein (PDHA1) in LLC tissue homogenates was assessed by ELISA Kit (Abcam) following the manufacturer’s instructions. The amount of phosphorylated S232 PDHA1 protein was detected by measuring the absorbance of each well at 600 nm, using a Bio-Rad 680 microplate reader.

[4] = test system: PSN-1 cells; test: TEM analysis of mitochondria; type: cell-based, human; conditions: 24 h, IC50 concentrations
Description: In addition, TEM analyses were performed on PSN-1 cancer cells after 24 h treatment with IC50 concentrations of the representative compounds 5i and 6h.
About 10^6 PSN-1 cancer cells were seeded in 24-well plates and, after 24 h incubation, were treated with IC50 concentrations of tested compounds and incubated for an additional 24 h. Cells were then washed with cold PBS, harvested, and directly fixed with 1.5% glutaraldehyde buffer with 0.2 M sodium cacodylate, pH 7.4. After washing with buffer and postfixation with 1% OsO4 in 0.2 M cacodylate buffer, specimens were dehydrated and embedded in epoxy resin (Epon Araldite). Sagittal serial sections (1 μm) were counterstained with toluidine blue; thin sections (90 nm) were given contrast by staining with uranyl acetate and lead citrate. Micrographs were taken with a Hitachi H-600 electron microscope (Hitachi, Tokyo, Japan) operating at 75 kV. All photos were typeset in Corel Draw 11.

[5] = test system: PSN-1 cells; test: Mitochondrial membrane potential (Mito-ID kit); type: cell-based, human; conditions: IC50 concentrations
Description: The ΔΨ was assayed using the Mito-ID® Membrane Potential Kit according to the manufacturer’s instructions (Enzo Life Sciences, Farmingdale, NY, USA) as previously described. Briefly, PSN-1 cells (8 × 10^3 per well) were seeded in 96-well plates; after 24 h, cells were washed with PBS and loaded with Mito-ID Detection Reagent for 30 min at 37 °C in the dark. Afterward, cells were incubated with tested compounds for 60 min. CCCP (Carbonyl cyanide 3-chlorophenyl-hydrazone) was used as the positive control. Fluorescence intensity was estimated using a VICTOR X3 (PerkinElmer, Waltham, MA, USA) plate reader at 490 (excitation) and 590 nm (emission).

[6] = test system: caspase-3 and -8 in PSN-1 cells; test: Caspase-3 and -8 activity; type: cell-based, human; conditions: 24 h, IC50 doses
Description: Apoptotic cell death can be triggered by a mitochondria-mediated or mitochondrial-independent pathways. In the […], caspase-8 and caspase-3 play an essential role. […] Staurosporine (STS), an alkaloid inducing apoptosis through caspase-3 and -8 activation was used as a positive control. […] Caspase-3 and -8 cleavage reached values similar to that induced by the well-known caspase-dependent apoptosis inducer staurosporine (Figure 10C).
Protein aliquots (100 μg) were stained at 37 °C for 60 min with fluorescent caspase-3 (N-acetyl-Asp-Glu-Val-Asp-AMC, AMC = 7-amino-4-methylcoumarin) or caspase-8 (Ac-Val-Glu-Thr-Asp-AMC) substrates. Substrate hydrolysis was measured after 60 min by monitoring the release of AMC using a a Tecan microplate reader (excitation at 370 nm, emission at 460 nm).

[7] = test system: PSN-1 cells; test: Cell death induction, Hoechst 33258 staining; type: cell-based, human; conditions: 48 h, IC50 doses
Description: As a last mechanistic evaluation, the ability of selected compounds 5i and 6h to induce cancer cell death by means of apoptosis, was also assessed.
PSN-1 cells were seeded into 8-well tissue-culture slides (BD Falcon, Bedford, MA, USA) at 5 × 10^4 cells/well (0.8 cm^2). […] Samples were examined at 5× and 40× magnification in a Zeiss LSM 800 confocal microscope using the Zeiss ZEN 2.3 software system (Zeiss, Oberkochen, Germany).

[8] = test system: murine Lewis Lung Carcinoma (LLC); test: In vivo anticancer activity, LLC solid tumor model; conditions: LLC-bearing C57BL mice, daily dosing days 7-14, evaluated day 15; 5i 20 mg kg−1 i.p., gemcitabine 60 mg kg−1, cisplatin 3 mg kg−1
Description: Seven days after tumor inoculation the tumor-bearing mice were randomized into vehicle control and treatment groups.
The LLC was implanted intramuscularly (i.m.) as a 2 × 10^6 cell inoculum into the right hind leg of 8-week-old male and female C57BL mice (24 ± 3 g body weight). After 7 days from tumor implantation (visible tumors), mice were randomly divided into 4 groups (8 animals per group) and subjected to daily i.p. administration. […] At day 15, animals were sacrificed, the legs were amputated at the proximal end of the femur, and the inhibition of tumor growth was determined from the difference in the weights of the tumor-bearing leg and the healthy leg of the animals, expressed as a percentage referenced to the control animals. Body weight was measured at day 0 and from day 7 onwards every 2 days and was taken as a parameter for systemic toxicity. All presented values are the means ± SD of no less than three measurements.

## Cn1cc(-c2nnc(N)nc2-c2cn(C)c3ccc(F)cc23)c2ccccc21 [5i]
[1]
  reduction in phospho-PDHA1 (S232) levels: very similar to that exerted by the reference PDK inhibitor DAP
[2]
  ROS basal level production / hydrogen peroxide formation: even higher than that provoked by antimycin
[3]
  phospho-S232-PDHA1 level in tumor samples: dramatically reduced PDH phosphorylation
[4]
  mitochondrial morphology (TEM): dramatic swelling of the mitochondria
[5]
  percentage of cells with hypopolarized mitochondrial membrane potential (in words): significantly increased
[6]
  caspase-3 and -8 activation: significantly activated
[7]
  apoptosis induction (nuclear morphology): brightly stained nuclei and morphological features typical of cells undergoing apoptosis
[8]
  reduction in tumor growth compared to the control group: about 80%
